This is an account of results in patent publication US11459327B1, “Cycloalkyl and hetero-cycloalkyl inhibitors, preparation methods therefor, and use thereof” (Suzhou Zelgen Biopharmaceuticals Co., Ltd., priority 2019, dated 2022).

For the experiment, the system named is NCI-H358(KRAS^G12C mutation) cells. Briefly: Cell assay of antiproliferative activity (Celltiter-Glo, 5 days) against NCI-H358 cells. The format is cell-based. Particulars: 5 days incubation. How it is done: Cell assay of antiproliferative activity of compounds against NCI-H358(KRAS^G12C mutation) and A549(KRAS^G12S mutation) cells.
40 μl phosphate buffer was added to the outer wells of the 384 microplate, and 40 μl cell suspension to be tested was added to the other wells. Then the microplate was incubated in a carbon dioxide incubator overnight.
The compounds to be tested were gradiently diluted, each compound was performed 10 concentration gradients (diluted from 50 μM to 0.003 μM) and added 100 nL to the corresponding wells in the microplate. After addition, 40 μl of phosphate buffer was added to each well in rows A and P and columns 1 and 24, and then the microplate was incubated in a carbon dioxide incubator for 5 days.
20 μL of Promega Celltiter-Glo reagent was added to each well of the microplate, and then the luminescence signal was stabilized by oscillating at room temperature for 10 min. Then PekinElmer Envision multi-label analyzer was used to read.
Finally, GraphPad Prism software was used to calculate the IC50 value of the compound and the fitting curve was drawn.
Anti-proliferative activity of the compounds of the present invention against NCI-H358(KRAS^G12C mutation) and A549(KRAS^G12S mutation) cells were shown in Table 1.
In general terms: In ATP-based viability assays light output follows the ATP content of the culture.

As to `C=C(F)C(=O)N1CCN(c2nc(OCC3(CN4CC(O)C4)CC3)nc3c2CCN(c2cccc4ccc(F)c(Cl)c24)C3)C[C@@H]1CC#N` [Example 68, (S)-2-(4-(7-(8-chloro-7-fluoronaphthalen-1-yl)-2-((1-((3-hydroxyazetidin-1-yl)methyl)cyclopropyl)methoxy)-5,6,7,8-tetrahydropyrido [3,4-d]pyrimidin-4-yl)-1-(2-fluoroacroloyl)piperazin-2-yl) acetonitrile], the IC50 (commonly the concentration needed to halve the response being measured) (Homo sapiens, NCI-H358, 120 h) is 0.086 µM.

Under “Homo sapiens, NCI-H358, 120 h”, `C=C(F)C(=O)N1CCN(c2nc(OCC3(CN4CCC4)CC3)nc3c2CCN(c2cccc4cccc(Cl)c24)C3)C[C@@H]1CC#N` [Example 48] came in with an IC50 of 0.065 µM.

Compound `C=C(F)C(=O)N1CCN(c2nc(OCC3(CN(C)CC)CC3)nc3c2CCN(c2cccc4cccc(Cl)c24)C3)C[C@@H]1CC#N` [Example 54, (S)-2-(4-(7-(8-chloronaphthalen-1-yl)-2-((1-((ethyl (methyl)amino)methyl)cyclopropyl)methoxy)-5,6,7,8-tetrahydropyrido[3,4-d]pyrimidin-4-yl)-1-(2-fluoroacroloyl)piperazin-2-yl) acetonitrile] gave an IC50 (Homo sapiens, NCI-H358, 120 h) of 0.047 µM.

As to `C=CC(=O)N1CCN(c2nc(OC[C@H](C)N(C)C3CCC3)nc3c2CCN(c2cccc4cccc(C)c24)C3)C[C@@H]1CC#N` [Example 91A, 2-((S)-1-acroloyl-4-(2-((S)-2-(cyclobutyl(methyl)amino)propoxy)-7-(8-methylnaphthalen-1-yl)-5,6,7,8-tetrahydropyrido[3,4-d]pyrimidin-4-yl)piperazin-2-yl) acetonitrile], the IC50 is < 0.03 µM.

In turn, `C=C(F)C(=O)N1CCN(c2nc(OCC3(CN4CC(F)(F)C4)CC3)nc3c2CCN(c2cccc4ccc(F)c(Cl)c24)C3)C[C@@H]1CC#N` [Example 59] yielded an IC50 (Homo sapiens, NCI-H358, 120 h) of 0.81 µM.

Consider `C=CC(=O)N1CC2CN(c3nc(OCC4(CN(C)C)CC4)nc4c3CCN(c3cccc5cccc(Cl)c35)C4)CC2C1` (stereo not drawn) [Example 38, 1-(5-(7-(8-chloronaphthalen-1-yl)-2-((1-((dimethylamino)methyl)cyclopropyl)methoxyl)-5,6,7,8-tetrahydropyrido[3,4-d]pyrimidin-4-yl)hexahydropyrrolo[3,4-c]pyrrole-2(1H)-yl)prop-2-ene-1-one], for which half-maximal inhibition (Homo sapiens, NCI-H358, 120 h) (IC50) required 4.9 µM.

Turning to `[2H]C([2H])([2H])N(CC1(COc2nc3c(c(N4CCN(C(=O)C(=C)F)[C@@H](CC#N)C4)n2)CCN(c2c(C)ccc4[nH]ncc24)C3)CC1)C([2H])([2H])[2H]` [Example 36], for the setting “Homo sapiens, NCI-H358, 120 h”, the half-inhibitory concentration (IC50) came to 0.25 µM.

As for `C=CC(=O)N1CCN(c2nc(OCC3(CN(C)C)CC3)nc3c2CCN(c2cccc4cccc(Cl)c24)C3)CC12CC2` [Example 39, 1-(7-(7-(8-chloronaphthalen-1-yl)-2-((1-((dimethylamino)methyl)cyclopropyl)methoxyl)-5,6,7,8-tetrahydropyrido[3,4-d]pyrimidin-4-yl)-4,7-diazaspiro[2.5]octane-4-yl)prop-2-ene-1-one], where the note is “Homo sapiens, NCI-H358, 120 h”, the IC50 was 2.5 µM.

Take `CC#CC(=O)N1CCN(c2nc(OCC3(CN(C)C)CC3)nc3c2CCN(c2cccc4cccc(Cl)c24)C3)C[C@@H]1CC#N` [Example 49, (S)-2-(1-(but-2-ynoyl)-4-(7-(8-chloronaphthalen-1-yl)-2-((1-((dimethylamino)methyl)cyclopropyl)methoxyl)-5,6,7,8-tetrahydropyrido[3,4-d]pyrimidin-4-yl)piperazin-2-yl) acetonitrile]: for the setting “Homo sapiens, NCI-H358, 120 h”, 0.043 µM corresponded to half-maximal inhibition (IC50).

Consider `C=CC(=O)N1[C@@H]2CC[C@H]1CN(c1nc(OCC3(CN(C)C)CC3)nc3c1CCN(c1cccc4cccc(Cl)c14)C3)C2` [Example 37, 1-((1R,5S)-3-(7-(8-chloronaphthalen-1-yl)-2-((1-((dimethylamino)methyl)cyclopropyl)methoxyl)-5,6,7,8-tetrahydropyrido[3,4-d]pyrimidin-4-yl)-3,8-diazabicyclo[3.2.1]octane-8-yl)prop-2-ene-1-one], for which the IC50 (Homo sapiens, NCI-H358, 120 h) is 1.4 µM.

In turn, `C=C(F)C(=O)N1CCN(c2nc(OCC3(CN(C)C(C)C)CC3)nc3c2CCN(c2cccc4cccc(Cl)c24)C3)C[C@@H]1CC#N` [Example 56, (S)-2-(4-(7-(8-chloronaphthalen-1-yl)-2-((1-((isopropyl(methyl)amino)methyl)cyclopropyl)methoxy)-5,6,7,8-tetrahydropyrido[3,4-d]pyrimidin-4-yl)-1-(2-fluoroacroloyl)piperazin-2-yl) acetonitrile] gave an IC50 (Homo sapiens, NCI-H358, 120 h) of 0.061 µM.

As for `C=CC(=O)N1CCN(c2nc(OC[C@@H](C)N(C)C3CCC3)nc3c2CCN(c2cccc4cccc(C)c24)C3)CC1CC#N` (stereo partly drawn) [Example 92, 2-(1-acroloyl-4-(2-((R)-2-(cyclobutyl(methyl)amino)propoxy)-7-(8-methylnaphthalen-1-yl)-5,6,7,8-tetrahydropyrido[3,4-d]pyrimidin-4-yl)piperazin-2-yl) acetonitrile], for the setting “Homo sapiens, NCI-H358, 120 h”, the 50% inhibitory concentration (IC50) was < 0.1 µM.

Consider `C=C(F)C(=O)N1CCN(c2nc(OCC3(CN(C)CC)CC3)nc3c2CCN(c2cccc4ccc(F)c(Cl)c24)C3)C[C@@H]1CC#N` [Example 62, (S)-2-(4-(7-(8-chloro-7-fluoronaphthalen-1-yl)-2-((1-((ethyl(methyl)amino)methyl)cyclopropyl)methoxy)-5,6,7,8-tetrahydropyrido[3,4-d]pyrimidin-4-yl)-1-(2-fluoroacroloyl)piperazin-2-yl) acetonitrile], for which the IC50 (Homo sapiens, NCI-H358, 120 h) was 0.036 µM.

Regarding `C=C(F)C(=O)N1CCN(c2nc(OCC3(C(C)N(C)C)CC3)nc3c2CCN(c2cccc4cccc(Cl)c24)C3)C[C@@H]1CC#N` (stereo partly drawn) [Example 53B, 2-((2S)-4-(7-(8-chloronaphthalen-1-yl)-2-(1-(1-((dimethylamino)ethyl)cyclopropyl)methoxy)-5,6,7,8-tetrahydropyrido[3,4-d]pyrimidin-4-yl)-1-(2-fluoroacroloyl)piperazin-2-yl) acetonitrile], half-maximal inhibition (IC50) was put at 1.3 µM.

`C=CC(=O)N1CCN(c2nc(OCC3(CN(C)C)CC3)nc3c2CCN(c2cccc4cccc(Cl)c24)C3)CC1C(F)(F)F` (stereo not drawn) [Example 41, 1-(-4-(7-(8-chloronaphthalen-1-yl)-2-((1-((dimethylamino)methyl)cyclopropyl)methoxyl)-5,6,7,8-tetrahydropyrido[3,4-d]pyrimidin-4-yl)-2-(trifluoromethyl)piperazin-1-yl)prop-2-ene-1-one] returned an IC50 (Homo sapiens, NCI-H358, 120 h) of 1.4 µM.

The compound `[2H]C([2H])([2H])N(CC1(COc2nc3c(c(N4CCN(C(=O)C(=C)F)[C@@H](CC#N)C4)n2)CCN(c2cccc4cccc(Cl)c24)C3)CC1)C([2H])([2H])[2H]` [Example 45] registered an IC50 (Homo sapiens, NCI-H358, 120 h) of 0.049 µM.

As to `C=C(F)C(=O)N1CCN(c2nc(OCC3(CN4CC(F)C4)CC3)nc3c2CCN(c2cccc4ccc(F)c(Cl)c24)C3)C[C@@H]1CC#N` [Example 65, (S)-2-(4-(7-(8-chloro-7-fluoronaphthalen-1-yl)-2-((1-((3-fluoroazetidin-1-yl)methyl)cyclopropyl)methoxy)-5,6,7,8-tetrahydropyrido[3,4-d]pyrimidin-4-yl)-1-(2-fluoroacroloyl)piperazin-2-yl) acetonitrile], for the setting “Homo sapiens, NCI-H358, 120 h”, the IC50 worked out at 0.045 µM.

`C=CC(=O)N1CCN(c2nc(OCCN(C)C3(C)CCC3)nc3c2CCN(c2cccc4cccc(Cl)c24)C3)CC1CC#N` (stereo not drawn) [Example 23, 2-(1-acroloyl-4-(7-(8-chloronaphthalen-1-yl)-2-(2-(methyl(1-methylcyclobutyl)amino)ethoxy)-5,6,7,8-tetrahydropyrido[3,4-d]pyrimidin-4-yl)piperazin-2-yl) acetonitrile]: the IC50 was 0.013 µM.
